# Experiments:
# [1] = test system: DENV; test: Association of DENV with liposomes; format: biochemical
# [2] = test system: dengue virus serotype 2, DENV2; test: Reduction of DENV viral titer by kinase inhibitors and labelled GNF2 derivatives (cell-based); settings: for EC90: Dengue virus, DENV2, read-out: EC90 (dengue virus serotype 2, DENV2)
# Protocol: In order to investigate the role of kinases on DENV entry, the order of addition of the cells, virus, and inhibitor was investigated. An inhibitor was either (i) contacted with a virus for 1 h at 37° C.; (ii) contacted with cells for 1 h at 37° C.; or (iii) contacted with a virus and cells for 1 h at 37° C. The cells were washed to remove virus and inhibitor. The washed cells were exposed to either DMSO or an inhibitor. Viral titer was measured at intervals post-infection by harvesting supernatants and measuring virus production by a plaque formation assay (PFA).
# [3] = test system: DENV2; test: Order-of-addition / post-infection treatment, single-cycle DENV2 yield in BHK21 cells by plaque-formation assay; format: cell-based; settings: for inhibition of DENV2 replication when added after infection: post-treatment of cells
# Protocol: To examine the point(s) in the DENV infectious cycle affected by GNF-2, we performed order of addition experiments measuring the effect of GNF-2 when incubated with cells or virus prior to infection (PRE), when added at the time of infection (CO), or when added after the initial infection had been allowed to occur (POST). […] BHK21 cells were inoculated with DENV2 at a multiplicity of infection (MOI) of 1 and incubated for one-hour at 37° C. after which the inoculum was removed, the cells were washed, and fresh medium was added to limit infection to a single round. At twenty-four hours post-infection, corresponding to approximately one complete life cycle of DENV, the yield of infectious virions that had been released to the culture supernatant was quantified by plaque-formation assay (PFA) as a measure of successful DENV replication.
# [4] = test system: DENV2; test: DENV2 infectivity assay, compound pre-incubated with virus inoculum, viral yield by plaque formation assay; settings: treatment of the virus
# [5] = biological target: Abl kinases; test: Abl kinase inhibition (IC50 kinase); format: biochemical
compound,measurement,setting,value
NC(=O)c1cccc(-c2cc(Nc3ccc(OC(F)(F)F)cc3)ncn2)c1 [GNF-2],association of DENV with liposomes,[1],does not block association
same,reduction of DENV viral titer,[2],over 1 log unit
same,EC90,[2],~1000 nM
same,IC90 (concentration causing a 10-fold decrease in single-cycle viral yield),"[3]; added to cells post-infection, BHK21, MOI 1, 24 h",8 μM
same,inhibition of DENV2 replication when added after infection,[3],inhibited DENV2 replication
same,"lowering of DV titer when pre-incubated with the virus, compared to DMSO control",[4],~1 log
same,IC50,[5],138 ± 5 nM
Cc1ccc(NC(=O)c2ccc(CN3CCN(C)CC3)cc2)cc1Nc1nccc(-c2cccnc2)n1 [imatinib],reduction of DENV viral titer,[2],did not
same,EC90,[2],10000 nM
same,inhibition of DENV2 replication when added after infection,[3],inhibited DENV2 replication

# Reference: patent US10150742B2, “Substituted heterocyclic compounds for treating or preventing viral infections” (President and Fellows of Harvard College, priority 2013, dated 2018)
